Experimental data published in ChEMBL document CHEMBL1155644, “New marine cembrane-type diterpenoids from the Okinawan soft coral Clavularia koellikeri” (J Nat Prod, 2000).
≈ marks a conversion by molar mass, not a printed value. Calls of active or inactive are those of the source. The rule behind the calls is not given here.

Assays:
Format in all cases: functional, cell-based
MOLT-4 [1] = test: Cytotoxicity against human MOLT4 cells at 0.6 uM/mL
DLD-1 [2] = test: Cytotoxicity against human DLD1 cells at 0.6 uM/mL
MOLT-4 [3] = test: Cytotoxicity against human MOLT4 cells
DLD-1 [4] = test: Cytotoxicity against human DLD1 cells

| SMILES | Activity (MOLT-4 [1]) | Activity (DLD-1 [2]) | IC50 (MOLT-4 [3]) | IC50 (DLD-1 [4]) |
| --- | --- | --- | --- | --- |
| C=C1C(=O)O[C@H]2/C=C(\C)C[C@H](OC(C)=O)/C=C(\C)CC/C=C(\C)C[C@H](O)[C@H]12 | Active | Active |  |  |
| C=C1C(=O)O[C@H]2/C=C(\C)C[C@H](OC(C)=O)/C=C(\C)C[C@H](OC(C)=O)/C=C(\C)C[C@H](OC(C)=O)[C@H]12 | Active | Active | 0.9 µg/mL (≈ 1.9 µM) | 4.2 µg/mL (≈ 8.85 µM) |
